Measured values from patent US20230131899A1, “INHIBITORS OF MICROBIALLY INDUCED AMYLOID” (Axial Therapeutics, Inc., priority 2020, published 2023).
Read-outs that look alike come from different tables or passages of the source.

How the values were obtained:
human α-synuclein = target: T1, human α-synuclein (Homo sapiens, UniProt P37840); assay: Cell-free Thioflavin T assay of α-synuclein aggregation (αSyn ThT Assay); assay type: biochemical; settings: αSyn 50 μM
T1 construct: the full-length gene for untagged human α-synuclein was inserted; made in house; host or cells: E. coli BL21(DE3), plasmid derived from pT7 or pET11a
Experimental: To assess the effects of compounds on aggregation of α-synuclein, a cell-free assay was performed using purified α-synuclein and Thioflavin T. In the assay, human α-synuclein was expressed in E. coli BL21(DE3) from a plasmid derived from pT7 or pET11a into which the full-length gene for untagged human α-synuclein was inserted. Cells were induced at OD600 0.6 with 0.8 mM IPTG for 4 hours, harvested by centrifugation and suspended in a volume of lysis buffer (10 mM Tris, pH 8.0, 1 mM EDTA, and 1 mM PMSF) equivalent to one-tenth the volume of culture and lysed by boiling for 20 minutes. Cell debris was pelleted by centrifugation, clarified lysate was treated with 10% streptomycin sulfate at 136 μL/mL followed by glacial acetic acid at 228 μL/mL, lysate was centrifuged, supernatant was transferred to a fresh tube and protein was precipitated via addition of an equal volume of saturated (100%) ammonium sulfate and incubated at 4° C. on a rocking shaker for 1 hour. The protein was pelleted via centrifugation and washed with an equal volume of 100 mM ammonium acetate in chilled ethanol, pelleted via centrifugation, washed twice with chilled ethanol, dried overnight, resuspended in 50 mM potassium phosphate buffer pH 7.3 or 10 mM Tris pH 7.4, and passed through a 50 kDa cut-off column. Immediately prior to use, the purified α-synuclein was filtered with a 0.2 μm nylon filter. The assay was conducted in 96-well black microplates with a single 1-2 mm glass bead in each well, 20-40 μM ThioflavinT, 1% DMSO, α-synuclein at 50 μM and compounds at 20-100 μM. Plates were sealed with sealing tape (ThermoFisher 232701), incubated at 37° C. in a Tecan Nano F200 plate reader with excitation at 438 nm using a 439 nm filter with a bandwidth of 8 nm, and emission at 495 nm with a 490 nm filter with a bandwidth of 10 nm. During the assay, plates were shaken continuously or were shaken for 999 seconds every 18 minutes. Readings were performed hourly for up to 73 hours. The effect of compounds on α-synuclein aggregation in the assay was determined with data at 36, 47, 48 or 72 hours or from the final timepoint of the assay, prior to or roughly near the time when ThT fluorescence plateaued in the vehicle control wells. The vehicle controls contained all components of the assay except compounds and represented the level of α-synuclein aggregation in the absence of an inhibitor or accelerator. Fluorescence values for each compound with α-synuclein were first adjusted by subtracting the average fluorescence of the compound in the absence of α-synuclein. These adjusted values were normalized by dividing them by the average fluorescence at the same timepoint in the vehicle control wells, and the average normalized fluorescence with the compound was expressed as a percentage of the average fluorescence observed in untreated controls. Percent inhibition of α-synuclein aggregation by a compound was determined by subtracting the percent average fluorescence with the compound relative to the average vehicle control from 100%. A higher positive percent inhibition reflects greater inhibition of α-synuclein aggregation, while a negative percent inhibition reflects potentiation of α-synuclein aggregation.
Alternate concentrations of Thioflavin T may be used in the assay and may affect the fluorescent signal and sensitivity of the assay. Alternate concentrations of α-synuclein may be used and such alterations may affect aggregation kinetics of α-synuclein in the assay. Alternate concentrations of compounds may be tested in the assay, and dose-responses may be evaluated. Additional reagents may be added to the assay which may affect aggregation kinetics of α-synuclein depending on their concentration, including detergents such as sodium dodecyl sulfate, sodium chloride, dithiotreitol, or bovine serum albumin. Shaking may be included at alternate intervals in the assay and may affect α-synuclein aggregation kinetics. […]

E. coli CsgA = target: T2, E. coli CsgA (Escherichia coli, UniProt P28307); assay: In vitro ThioflavinT assay of CsgA aggregation (CsgA ThT Assay); assay type: biochemical; settings: for remaining activity at 100 µM: compound 100 μM
T2 construct: made in house; host or cells: E. coli NEB 3016 slyD::kan, pET11d
T2 sequence (P28307 23-151): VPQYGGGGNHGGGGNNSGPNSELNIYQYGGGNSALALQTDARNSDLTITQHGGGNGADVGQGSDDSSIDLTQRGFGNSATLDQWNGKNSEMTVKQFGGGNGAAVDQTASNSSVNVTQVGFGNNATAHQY
Method in brief: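 Purified C-terminal His-tagged CsgA, monomerised by desalting and 30-kDa filtration, at 2-20 μM with 20-40 μM ThT in 50 mM potassium phosphate pH 7.3, 1% DMSO, compounds 3.125-200 uM; room temperature, fluorescence (ex 438/em 495 nm) read every 15 min. Background-subtracted signal expressed as percent inhibition versus vehicle at 6-6.5 or 8-9 h, or as percent control AUC.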

[1] = mean % inhibition of αSyn aggregation relative to DMSO control, compounds at 100 μM, read-out: αSyn ThT Assay % Inhibition
[2] = compounds at 100 μM, class symbol
[3] = read-out: CsgA ThT Assay (10 μM CsgA) % Control AUC at 1005 minutes, 25 μM (activity range), CsgA 10 μM, black plates, compound 25 μM, 1005 minutes, class symbol
[4] = read-out: CsgA ThT Assay (10 μM CsgA) % Control AUC at 1005 minutes, 25 μM, mean AUC as % of DMSO control, CsgA 10 μM, black plates, compound 25 μM, 1005 minutes
[5] = read-out: CsgA ThT Assay (10 μM CsgA) % Control AUC at 1005 minutes, 100 μM (activity range), CsgA 10 μM, black plates, 1005 minutes, class symbol
[6] = read-out: CsgA ThT Assay (10 μM CsgA) % Control AUC at 1005 minutes, 100 μM, mean AUC as % of DMSO control, CsgA 10 μM, black plates, 1005 minutes
[7] = compounds at 100 μM, class symbol, read-out: αSyn ThT Assay % Inhibition (activity range)
[8] = class symbol, compounds 100 μM, read-out: αSyn ThT Assay % inhibition, activity range
[9] = mean percent inhibition relative to DMSO control, compounds 100 μM, read-out: αSyn ThT Assay % inhibition
[10] = read-out: CsgA ThT Assay (2 μM CsgA) % Control Bmax 25 μM, activity range, class symbol, CsgA 2 μM, white plates, compound 25 μM
[11] = read-out: CsgA ThT Assay (2 μM CsgA) % Control Bmax 25 μM, mean Bmax as percentage of DMSO control, CsgA 2 μM, white plates, compound 25 μM

Structure (SMILES)	inhibition at 100 µM (human α-synuclein; [1])	remaining activity at 25 µM (E. coli CsgA; [3])	remaining activity at 25 µM (E. coli CsgA; [4])	remaining activity at 100 µM (E. coli CsgA; [5])	remaining activity at 100 µM (E. coli CsgA; [6])	inhibition at 100 µM (human α-synuclein; [7])	further results
CN1CC(C(=O)O)n2c(c(-c3cccc(C(F)(F)F)c3)c(Cc3cccc4ccccc34)cc2=O)S1(=O)=O (single isomer, unassigned) [Compound 008a, 2-methyl-8-(naphthalen-1-ylmethyl)-6-oxo-9-(3-(trifluoromethyl)phenyl)-3,4-dihydro-2H,6H-pyrido[1,2-e][1,2,5]thiadiazine-4-carboxylic acid 1,1-dioxide]	16%	> 60%	71%	31 to 60%	38%	–	αSyn ThT Assay % Inhibition (activity range) (human α-synuclein; [2]): (+) ((+) represents 11 to 30)
CN1CC(C(=O)O)n2c(c(-c3cccc(C(F)(F)F)c3)c(Cc3cccc4ccccc34)cc2=O)S1(=O)=O (single isomer, unassigned) [Compound 008b, 2-methyl-8-(naphthalen-1-ylmethyl)-6-oxo-9-(3-(trifluoromethyl)phenyl)-3,4-dihydro-2H,6H-pyrido[1,2-e][1,2,5]thiadiazine-4-carboxylic acid 1,1-dioxide]	–	–	–	–	–	–	αSyn ThT Assay % Inhibition (human α-synuclein; mean % inhibition of αSyn aggregation relative to DMSO control, compounds at 100 μM): 10%; αSyn ThT Assay % Inhibition (activity range) (human α-synuclein; [2]): (−) ((−) represents −10 to 10)
O=C(O)C1CS(=O)(=O)c2c(-c3cccc(C(F)(F)F)c3)c(Cc3cccc4ccccc34)cc(=S)n21 (single isomer, unassigned) [Compound 014a, 7-(naphthalen-1-ylmethyl)-5-thioxo-8-(3-(trifluoromethyl)phenyl)-2,3-dihydro-5H-thiazolo[3,2-a]pyridine-3-carboxylic acid 1,1-dioxide]	68%	–	–	11 to 31%	29%	> 60%	CsgA ThT Assay (10 μM CsgA) % Control AUC at 1005 minutes, 25 μM (activity range) (E. coli CsgA; CsgA 10 μM, black plates, compound 25 μM, 1005 minutes, class symbol): (++) (% control AUC of 31 to 60%); CsgA ThT Assay (10 μM CsgA) % Control AUC at 1005 minutes, 25 μM (E. coli CsgA; mean AUC as % of DMSO control, CsgA 10 μM, black plates, compound 25 μM, 1005 minutes): 37%
O=C(O)C1CNS(=O)(=O)c2c(-c3cccc(C(F)(F)F)c3)c(Cc3cccc4ccccc34)c(NC3CCCC3)c(=O)n21 (stereo not drawn) [Compound 005, 7-(cyclopentylamino)-8-(naphthalen-1-ylmethyl)-6-oxo-9-(3-(trifluoromethyl)phenyl)-3,4-dihydro-2H,6H-pyrido[1,2-e][1,2,5]thiadiazine-4-carboxylic acid 1,1-dioxide]	–	–	–	–	–	–	inhibition at 100 µM (human α-synuclein; [8]): 31 to 60%; inhibition at 100 µM (human α-synuclein; [9]): 48%; remaining activity at 25 µM (E. coli CsgA; [10]): > 60%; remaining activity at 25 µM (E. coli CsgA; [11]): 66%; remaining activity at 100 µM (E. coli CsgA; read-out: CsgA ThT Assay (2 μM CsgA) % Control Bmax 100 μM, activity range, class symbol, CsgA 2 μM, white plates): 11 to 31%; remaining activity at 100 µM (E. coli CsgA; read-out: CsgA ThT Assay (2 μM CsgA) % Control Bmax 100 μM, mean Bmax as percentage of DMSO control, CsgA 2 μM, white plates): 20%
O=C(O)c1csc2c(-c3cccc(C(F)(F)F)c3)c(Cc3cccc4ccccc34)cc(=O)n12 [Compound 019, 7-(naphthalen-1-ylmethyl)-5-oxo-8-(3-(trifluoromethyl)phenyl)-5H-thiazolo[3,2-a]pyridine-3-carboxylic acid]	41%	> 60%	69%	> 60%	104%	31 to 60%	–
O=C(O)CCCN1CC(C(=O)O)n2c(c(-c3cccc(C(F)(F)F)c3)c(Cc3cccc4ccccc34)cc2=O)S1(=O)=O (stereo not drawn) [Compound 029, 2-(3-carboxypropyl)-8-(naphthalen-1-ylmethyl)-6-oxo-9-(3-(trifluoromethyl)phenyl)-3,4-dihydro-2H,6H-pyrido[1,2-e][1,2,5]thiadiazine-4-carboxylic acid 1,1-dioxide]	-2%	> 60%	71%	31 to 60%	48%	-10 to 10%	–
CN1CC(C(=O)O)n2c(c(-c3cccc(C(F)(F)F)c3)c(Cc3ccc(N)c4ccccc34)cc2=O)S1(=O)=O (stereo not drawn) [Compound 040]	61%	> 60%	78%	< 10%	8%	> 60%	–
CC(=O)Nc1ccc(Cc2cc(=O)n3c(c2-c2cccc(C(F)(F)F)c2)S(=O)(=O)N(C)CC3C(=O)O)c2ccccc12 (stereo not drawn) [Compound 048]	18%	> 60%	90%	> 60%	61%	11 to 30%	–
Nc1c(Cc2cccc3ccccc23)c(-c2cccc(C(F)(F)F)c2)c2scc(C(=O)O)n2c1=O [Compound 050, 6-amino-7-(naphthalen-1-ylmethyl)-5-oxo-8-(3-(trifluoromethyl)phenyl)-5H-thiazolo[3,2-a]pyridine-3-carboxylic acid]	49%	31 to 60%	36%	11 to 31%	22%	31 to 60%	–
CN1CC(C(=O)O)n2c(c(-c3cccc(C(F)(F)F)c3)c(Cc3ccc(NS(C)(=O)=O)c4ccccc34)cc2=O)S1(=O)=O (stereo not drawn) [Compound 067]	35%	> 60%	67%	11 to 31%	16%	31 to 60%	–
CCCN1CC(C(=O)O)n2c(c(-c3cccc(C(F)(F)F)c3)c(Cc3cccc4ccccc34)c(OC3CCCC3)c2=O)S1(=O)=O (stereo not drawn) [Compound 144, 7-(cyclopentyloxy)-8-(naphthalen-1-ylmethyl)-6-oxo-2-propyl-9-(3-(trifluoromethyl)phenyl)-3,4-dihydro-2H,6H-pyrido[1,2-e][1,2,5]thiadiazine-4-carboxylic acid 1,1-dioxide]	–	–	–	–	–	–	inhibition at 100 µM (human α-synuclein; [8]): 11 to 30%; inhibition at 100 µM (human α-synuclein; [9]): 29%; remaining activity at 25 µM (E. coli CsgA; [10]): > 60%; remaining activity at 25 µM (E. coli CsgA; [11]): 77%
